# Laboratory results: US5006515A, “Pharmaceuticals, phosphorus-containing 2-isoxazolines and isoxazoles contained therein” (Hoechst Aktiengesellschaft, priority 1987, dated 1991)
# Read-outs that look alike come from different tables or passages of the source.
# Tests used:
# active Arthus reaction = experiment: Active Arthus reaction in the rat; format: in vivo, Sprague-Dawley rats
# Protocol: The experimental animals used were female and male Sprague-Dawley rats with a body weight between 80 and 100 g which received subcutaneous injections into the tail-head of 0.5 ml of an emulsion of pertussis vaccine and ovalbumin in liquid paraffin. After two weeks, the rats were divided into groups each of 8 animals. 24 hours and 1 hour before induction of the Arthus reaction by injection of 0.1 ml of a 0.4% strength ovalbumin solution into the right hind paw, the particular test substance or the pure vehicle (positive control) was administered orally, sodium chloride solution was injected into the left paw. One group of unsensitized animals (negative control group) was likewise treated with ovalbumin in order to be able to rule out nonspecific reactions to the protein. The parameter used for measuring the action of the product was the percentage change in the increase in paw volume compared with that in the control group which was sensitized but untreated (positive control) 4 hours after ovalbumin challenge, when the swelling had reached its maximum.
# Acute toxicity = experiment: Acute toxicity; parameters: species or system mice; settings: mouse, in vivo, single dose, mortality within 7 days
# Protocol: The LD50 values were determined by the standard method via the mortality occurring within 7 days in NMRI (Naval Medical Research Institute) mice (6 animals per dose) after a single intraperitoneal (i.p.) or intravenous (i.v.) dose.
# leucine aminopeptidase = experiment: Inhibition of leucine aminopeptidase; format: biochemical; settings: substrate L-leucine 4-nitroanilide
# Protocol: The activity of the enzyme aminopeptidase B was determined photometrically using the substrate L-lysine 2-naphthylamide at room temperature. […] In the same way, the inhibition of leucine aminopeptidase was investigated using L-leucine 4-nitroanilide as enzyme substrate. The IC50 values are compiled in Table 6.
# [1] = Rattus norvegicus, po, 4 h, oral dose 50 mg/kg, 4 h after ovalbumin challenge
# [2] = Rattus norvegicus, po, 4 h, read-out: Active Arthus reaction % change
# [3] = Rattus norvegicus, po, 4 h, oral dose 35 mg/kg, 4 h after ovalbumin challenge, read-out: Active Arthus reaction % change
structure (smiles),measurement,setting,value
O=P(O)(O)c1cc(-c2ccncc2)no1 [Example 51],change in vivo at 50 mg/kg,active Arthus reaction; [1],17%
same,LD50 at 168 h,Acute toxicity; iv,> 200 mg/kg
O=P(O)(O)C1CC(C=Cc2ccccc2)=NO1 (centres unmarked) [Example 52],change in vivo at 50 mg/kg,active Arthus reaction; [1],-15%
"CCOP(=O)(C1CC(c2ccccc2)=NO1)N1CCCC1 (centres unmarked) [Example 55, 3-Phenyl-2-isoxazolin-5-yl(P-ethoxy)phosphonic acid pyrrolidide]",change in vivo at 70 mg/kg,"active Arthus reaction; Rattus norvegicus, oral dose 70 mg/kg, 4 h after ovalbumin challenge, read-out: Active Arthus reaction % change",-23%
same,LD50 at 168 h,Acute toxicity; iv,> 200 mg/kg
"CCOP(=O)(NCC(=O)OCc1ccccc1)C1CC(c2ccccc2)=NO1 (centres unmarked) [Example 56, N-[3-Phenyl-2-isoxazolin-5-yl(P-ethoxy)phosphonoyl]glycine benzyl ester]",change in vivo at 100 mg/kg,"active Arthus reaction; Rattus norvegicus, oral dose 100 mg/kg, 4 h after ovalbumin challenge, read-out: Active Arthus reaction % change",35%
same,LD50 at 168 h,Acute toxicity; ip,> 1200 mg/kg
"CN(C)P(=O)(C1CC(c2ccccc2)=NO1)N(C)C (centres unmarked) [Example 59, 3-Phenyl-2-isoxazolin-5-ylphosphonic tetra methyldiamide]",change in vivo at 50 mg/kg,active Arthus reaction; [1],-25%
same,LD50 at 168 h,Acute toxicity; iv,> 200 mg/kg
"CC(C)(C)C1=NOC(P(C)(=O)O)C1 (centres unmarked) [Example 64, 3-tert.Butyl-2-isoxazolin-5-yl(P-methyl)phosphinic acid]",change in vivo at 20 mg/kg,active Arthus reaction; [2],-59%
same,LD50 at 168 h,Acute toxicity; iv,> 200 mg/kg
COP(=O)(OC)C1CC(c2ccc(F)cc2)=NO1 (centres unmarked) [Example 65],LD50 at 168 h,Acute toxicity; ip,> 300 mg/kg
"COC(=O)c1ccc(C2=NOC(P(=O)(OC)OC)C2)cc1 (centres unmarked) [Example 66, Dimethyl 3-(4-methoxycarbonylphenyl)-2-isoxazolin-5-ylphosphonate]",change in vivo at 50 mg/kg,"active Arthus reaction; Rattus norvegicus, oral dose 50 mg/kg, 4 h after ovalbumin challenge",-28%
"O=P(O)(O)C1CC(c2ccc(F)cc2)=NO1 (centres unmarked) [Example 67, 3-(4-Fluorophenyl)-2-isoxazolin-5-ylphosphonic acid]",Leucine aminopeptidase IC50,leucine aminopeptidase,57 μug/ml
same,change in vivo at 50 mg/kg,active Arthus reaction; [1],-35%
"O=[N+]([O-])c1ccc(C2=NOC(P(=O)(O)O)C2)cc1 (centres unmarked) [Example 69, 3-(4-Nitrophenyl)-2-isoxazolin-5-ylphosphonic acid]",Leucine aminopeptidase IC50,leucine aminopeptidase,27 μug/ml
same,change in vivo at 50 mg/kg,active Arthus reaction; [1],-20%
same,LD50 at 168 h,Acute toxicity; iv,> 100 mg/kg
"Br.CN(C)c1ccc(C2=NOC(P(=O)(O)O)C2)cc1 (centres unmarked) [Example 71, 3-(4-Dimethylaminophenyl)-2-isoxazolin-5-ylphosphonic acid hydrobromide]",Leucine aminopeptidase IC50,leucine aminopeptidase,37 μug/ml
same,change in vivo at 70 mg/kg,active Arthus reaction; [2],-10%
same,LD50 at 168 h,Acute toxicity; ip,150 to 300 mg/kg
"O=P(O)(O)C1CC(c2ccccc2O)=NO1 (centres unmarked) [Example 73, 3-(2-Hydroxyphenyl)-2-isoxazolin-5-ylphosphonic acid]",change in vivo at 35 mg/kg,active Arthus reaction; [3],-44%
same,LD50 at 168 h,Acute toxicity; ip,150 to 300 mg/kg
"O=P(O)(O)C1CC(c2cccs2)=NO1 (centres unmarked) [Example 75, 3-(2-Thienyl)-2-isoxazolin-5-ylphosphonic acid]",Leucine aminopeptidase IC50,leucine aminopeptidase,79 μug/ml
same,change in vivo at 35 mg/kg,active Arthus reaction; [2],-26%
same,LD50 at 168 h,Acute toxicity; iv,> 100 mg/kg
"CC(C)(C)c1cc(P(=O)(O)O)on1 [Example 77, Diammonium 3-tert.butyl-5-isoxazolylphosphonate]",change in vivo at 35 mg/kg,active Arthus reaction; [2],-20%
"CP(=O)(O)CC1CC(Cl)=NO1 (centres unmarked) [Example 79, 3-Chloro-2-isoxazolin-5-ylmethyl(P-methyl)phosphinic acid]",change in vivo at 70 mg/kg,active Arthus reaction; [2],-24%
O=C(O)c1ccc(C2=NOC(P(=O)(O)O)C2)cc1 (centres unmarked) [Example 87],change in vivo at 35 mg/kg,active Arthus reaction; [3],-29%
O=P(O)(O)C1CC(c2cccnc2)=NO1 (centres unmarked) [Example 88],change in vivo at 50 mg/kg,active Arthus reaction; [1],-50%
COP(=O)(OC)C1CC(C(C)(C)O)=NO1 (centres unmarked) [Example 90],Active Arthus reaction % change,"active Arthus reaction; oral dose 50 mg/kg, 4 h after ovalbumin challenge",-31%
CC(C)(C)C1=NOC(CP(C)(=O)O)C1 (centres unmarked) [Example 99],change in vivo at 35 mg/kg,active Arthus reaction; [2],-32%
same,LD50 at 168 h,Acute toxicity; iv,> 100 mg/kg
CCOC(=O)C1=NOC(P(C)(=O)O)C1 (centres unmarked) [Example 101],change in vivo at 70 mg/kg,active Arthus reaction; [2],-32%
same,LD50 at 168 h,Acute toxicity; iv,> 100 mg/kg
CP(=O)(O)C1CC(C(=O)O)=NO1 (centres unmarked) [Example 102],change in vivo at 35 mg/kg,active Arthus reaction; [2],-35%
CP(C)(=O)C1CC(c2ccccn2)=NO1 (centres unmarked) [Example 105],change in vivo at 35 mg/kg,active Arthus reaction; [3],-23%
same,LD50 at 168 h,Acute toxicity; iv,> 100 mg/kg
